Results reported in publication PMC9505659, “Mixture Effects of Tryptophan Intestinal Microbial Metabolites on Aryl Hydrocarbon Receptor Activity” (International Journal of Molecular Sciences, 2022).
Read-outs that look alike come from different tables or passages of the source.

How the values were obtained:
AHR [1] = system: AHR; set-up: method as in PMID 32283770; conditions: reporter hepatic cell line, 24 h of incubation; cited from earlier work
AHR [2] = molecular target: T1, AHR (Homo sapiens, UniProt P35869); experiment: High-throughput AHR reporter gene assay in AZ-AHR cells;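 also: luciferase activity measured in lysed AZ-AHR reporter cells after 4 h compound exposure, with 0.1% DMSO as vehicle control and 5 nM TCDD as reference agonist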
T1 sequence (P35869 11-848): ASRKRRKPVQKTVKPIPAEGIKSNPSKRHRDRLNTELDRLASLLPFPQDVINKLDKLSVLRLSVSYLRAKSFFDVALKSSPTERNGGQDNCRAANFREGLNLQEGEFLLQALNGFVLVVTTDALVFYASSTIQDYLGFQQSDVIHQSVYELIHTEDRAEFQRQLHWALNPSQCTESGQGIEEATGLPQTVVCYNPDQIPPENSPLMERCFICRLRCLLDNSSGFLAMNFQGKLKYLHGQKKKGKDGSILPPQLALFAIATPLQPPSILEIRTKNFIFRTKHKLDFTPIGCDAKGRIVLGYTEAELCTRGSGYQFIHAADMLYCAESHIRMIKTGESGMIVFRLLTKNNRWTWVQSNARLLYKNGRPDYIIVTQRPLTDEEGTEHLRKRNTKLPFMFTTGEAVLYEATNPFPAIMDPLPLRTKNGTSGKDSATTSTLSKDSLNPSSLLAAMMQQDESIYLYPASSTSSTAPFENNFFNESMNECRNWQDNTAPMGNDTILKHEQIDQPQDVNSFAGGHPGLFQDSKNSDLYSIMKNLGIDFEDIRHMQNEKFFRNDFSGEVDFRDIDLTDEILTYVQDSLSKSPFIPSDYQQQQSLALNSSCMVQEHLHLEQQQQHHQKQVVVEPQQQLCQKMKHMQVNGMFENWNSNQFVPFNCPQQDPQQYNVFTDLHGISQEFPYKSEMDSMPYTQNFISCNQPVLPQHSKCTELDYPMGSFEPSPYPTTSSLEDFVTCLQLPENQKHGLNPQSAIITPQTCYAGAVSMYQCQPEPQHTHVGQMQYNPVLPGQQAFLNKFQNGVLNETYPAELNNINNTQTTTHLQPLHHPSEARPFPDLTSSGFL
Procedure: (§2) After 24 h of incubation, the cells were treated with the reference (5 nM TCDD) and tested compounds using a contact-free acoustic liquid handler ECHO 550 (Labcyte, San Jose, CA, USA). […] The cells were incubated with the tested compounds for 4 h. Thereafter, the cells were washed with PBS by Washer EL406 (BioTek, Winooski, VT, USA) and lysed by 1x gene reporter lysis buffer (E3971, Promega). After adding the substrate (D-Luciferin, L9504, Sigma) with a dispenser Multidrop Combi (ThermoFisher Scientific), the luciferase activity was measured on a multimode plate reader EnVision (PerkinElmer). The experiments were performed in technical duplicates and three biological replicates at least.

[3] = molecular target: T2, peroxisome proliferator-activated receptor gamma (PPARγ) (Homo sapiens, UniProt P37231); experiment: Nuclear receptor counter-screen, luciferase reporter assay PAZ-PPARg cells; format: cell-based; conditions: 15d-PGDJ 40 µM, 24 h
T2 construct: PAZ-PPARg (derived from the human bladder carcinoma cell line T24/83); endogenous in cells; host or cells: PAZ-PPARg (T24/83 stably transfected reporter line)
T2 sequence (P37231 1-505): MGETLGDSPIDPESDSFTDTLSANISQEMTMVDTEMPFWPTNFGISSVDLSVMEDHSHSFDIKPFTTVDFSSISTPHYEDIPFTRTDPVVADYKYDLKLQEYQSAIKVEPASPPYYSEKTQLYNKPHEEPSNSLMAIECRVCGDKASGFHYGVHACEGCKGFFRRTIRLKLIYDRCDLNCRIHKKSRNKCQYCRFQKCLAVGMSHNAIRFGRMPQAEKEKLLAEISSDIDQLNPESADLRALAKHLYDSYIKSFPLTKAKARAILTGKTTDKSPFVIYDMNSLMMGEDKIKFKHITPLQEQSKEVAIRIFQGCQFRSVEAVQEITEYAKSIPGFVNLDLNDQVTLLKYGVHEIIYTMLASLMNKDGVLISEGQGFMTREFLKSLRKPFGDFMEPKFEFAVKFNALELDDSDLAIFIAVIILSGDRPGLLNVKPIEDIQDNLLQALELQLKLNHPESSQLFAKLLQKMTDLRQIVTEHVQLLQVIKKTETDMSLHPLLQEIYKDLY
Procedure: (§3) The following stably transfected reporter gene cell lines were used to estimate specific receptor activation: AZ-AHR (derived from the human hepatocellular carcinoma cell line HepG2) [41], LS174T-AHR-luc (harboring the reporter plasmid pGL-4.27-DRE and prepared by the same protocol as AZ-AHR, AZ-GR (derived from the human cervix carcinoma cell line HeLa)) [42], and IZ-VDRE (derived from the human colon adenocarcinoma cell line LS180) [43]. Cells were cultured in Dulbecco’s modified Eagle’s medium supplemented with 10% fetal bovine serum, 4 mM L-glutamine, 1% nonessential amino acids and antibiotics, and 100 U/mL Penicillin-Streptomycin. […]
(§4) The reporter cells were seeded into 96-well plates at a density of 2.5 × 10^4 (AZ-AHR, LS174T-AHR-luc, IZ-VDRE), 5 × 10^4 (AIZ-AR), 2.2 × 10^4 (AZ-GR), or 4 × 10^4 (PAZ-PPARg) cells in 0.2 mL of culture medium. […] After treatment, cells were lysed in a lysis buffer and the luciferase activity was measured in a 96-well plate format using the Nano-Glo Luciferase AssaySystem for the PAZ-PPARg and IZ-VDRE cell lines and the Luciferase AssaySystem for the AZ-AHR, LS174T-AHR-luc, AIZ-AR, and AZ-GR cell lines on a Tecan Infinite M200 Pro Plate Reader (Tecan, Männedorf, Switzerland).

[4] = molecular target: glucocorticoid receptor (GR) (Homo sapiens, UniProt P04150); experiment: cell-based
Source text: (§1) The human colon adenocarcinoma cell line LS174T was purchased from the American Type Culture Collection (ATCC). The following stably transfected reporter gene cell lines were used to estimate specific receptor activation: AZ-AHR (derived from the human hepatocellular carcinoma cell line HepG2), LS174T-AHR-luc (harboring the reporter plasmid pGL-4.27-DRE and prepared by the same protocol as AZ-AHR, AZ-GR (derived from the human cervix carcinoma cell line HeLa)), and IZ-VDRE (derived from the human colon adenocarcinoma cell line LS180). Cells were cultured in Dulbecco’s modified Eagle’s medium supplemented with 10% fetal bovine serum, 4 mM L-glutamine, 1% nonessential amino acids and antibiotics, and 100 U/mL Penicillin-Streptomycin. AIZ-AR (derived from the human prostate carcinoma cell line 22RV1) was cultivated in RPMI-1640 medium supplemented with 10% charcoal-stripped fetal bovine serum, 4 mM L-glutamine, and antibiotics 100 U/mL Penicillin-Streptomycin. PAZ-PPARg (derived from the human bladder carcinoma cell line T24/83) was cultivated in Dulbecco’s modified Eagle’s medium supplemented with 10% charcoal-stripped fetal bovine serum, 4 mM L-glutamine and antibiotics, and 100 U/mL Penicillin-Streptomycin. Cells were maintained in 75 cm^2 plastic tissue culture flasks and subcultured twice a week.

androgen receptor (AR) = conditions: DHT 100 nM, 24 h
Procedure: The human colon adenocarcinoma cell line LS174T was purchased from the American Type Culture Collection (ATCC). […] Cells were cultured in Dulbecco’s modified Eagle’s medium supplemented with 10% fetal bovine serum, 4 mM L-glutamine, 1% nonessential amino acids and antibiotics, and 100 U/mL Penicillin-Streptomycin. […] PAZ-PPARg (derived from the human bladder carcinoma cell line T24/83) was cultivated in Dulbecco’s modified Eagle’s medium supplemented with 10% charcoal-stripped fetal bovine serum, 4 mM L-glutamine and antibiotics, and 100 U/mL Penicillin-Streptomycin. Cells were maintained in 75 cm^2 plastic tissue culture flasks and subcultured twice a week.

AHR [5] = molecular target: T1, AHR
Procedure: as §2

AZ-AHR cells = experiment: Cell viability assays (MTT, neutral red, LDH) in AZ-AHR cells; format: cell-based, human; conditions: 24 h, 2.5 and 5 mM
Procedure: The highest concentrations of the tested compounds were adjusted based on their solubility. […] The MTT (3-(4,5,-dimethylthiazol-2-yl)-2,5-diphenyltetrazolium bromide) colorimetric assay was performed as previously described. The neutral red assay and LDH (Abcam, Cambridge, UK) assays were performed according to the manufacturer’s protocol. Assays were measured spectrophotometrically using a Tecan Infinite M200 plate reader (Tecan, Männedorf, Switzerland).

AHR [6] = molecular target: T1, AHR; experiment: AHR luciferase reporter assay in LS174T-AHR-luc cells; format: cell-based; set-up: endogenous in cells; conditions: IND 274 µM (highest applied concentration), 4 h, TCDD 20 nM
Source text: as §1

AHR [7] = molecular target: T1, AHR; set-up: AZ-AHR (derived from the human hepatocellular carcinoma cell line HepG2); endogenous in cells; host or cells: AZ-AHR (HepG2 stably transfected with a reporter); method as in PMID 26235394; conditions: 4 h of incubation, human hepatic HepG2 (40/6) reporter cells; cited from earlier work
vitamin D receptor (VDR) = molecular target: T3, vitamin D receptor (VDR) (Homo sapiens, UniProt P11473); experiment: Nuclear receptor counter-screen, luciferase reporter assay IZ-VDRE cells; format: cell-based; conditions: VD3 75 nM, 24 h
T3 construct: IZ-VDRE (derived from the human colon adenocarcinoma cell line LS180); endogenous in cells; host or cells: IZ-VDRE (LS180 stably transfected reporter line)
T3 sequence (P11473 1-427): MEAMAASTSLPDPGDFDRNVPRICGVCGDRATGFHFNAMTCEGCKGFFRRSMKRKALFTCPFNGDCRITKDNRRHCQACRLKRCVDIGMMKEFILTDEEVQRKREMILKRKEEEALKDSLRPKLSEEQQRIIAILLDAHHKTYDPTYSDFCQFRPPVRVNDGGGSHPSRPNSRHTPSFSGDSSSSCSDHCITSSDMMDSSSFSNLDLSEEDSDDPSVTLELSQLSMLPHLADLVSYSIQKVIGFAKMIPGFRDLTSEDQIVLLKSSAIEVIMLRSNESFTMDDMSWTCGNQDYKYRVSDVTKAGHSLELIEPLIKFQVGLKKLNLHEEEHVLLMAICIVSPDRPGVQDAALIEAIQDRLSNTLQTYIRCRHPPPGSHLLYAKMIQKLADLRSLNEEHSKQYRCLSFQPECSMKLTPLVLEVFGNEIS
Procedure: as §3, §4

[8] = AZ-AHR cells, 4 h, luciferase activity by MICT in highest concentration / by 5 nM TCDD

glucocorticoid receptor (GR), sequence (P04150 whole entry): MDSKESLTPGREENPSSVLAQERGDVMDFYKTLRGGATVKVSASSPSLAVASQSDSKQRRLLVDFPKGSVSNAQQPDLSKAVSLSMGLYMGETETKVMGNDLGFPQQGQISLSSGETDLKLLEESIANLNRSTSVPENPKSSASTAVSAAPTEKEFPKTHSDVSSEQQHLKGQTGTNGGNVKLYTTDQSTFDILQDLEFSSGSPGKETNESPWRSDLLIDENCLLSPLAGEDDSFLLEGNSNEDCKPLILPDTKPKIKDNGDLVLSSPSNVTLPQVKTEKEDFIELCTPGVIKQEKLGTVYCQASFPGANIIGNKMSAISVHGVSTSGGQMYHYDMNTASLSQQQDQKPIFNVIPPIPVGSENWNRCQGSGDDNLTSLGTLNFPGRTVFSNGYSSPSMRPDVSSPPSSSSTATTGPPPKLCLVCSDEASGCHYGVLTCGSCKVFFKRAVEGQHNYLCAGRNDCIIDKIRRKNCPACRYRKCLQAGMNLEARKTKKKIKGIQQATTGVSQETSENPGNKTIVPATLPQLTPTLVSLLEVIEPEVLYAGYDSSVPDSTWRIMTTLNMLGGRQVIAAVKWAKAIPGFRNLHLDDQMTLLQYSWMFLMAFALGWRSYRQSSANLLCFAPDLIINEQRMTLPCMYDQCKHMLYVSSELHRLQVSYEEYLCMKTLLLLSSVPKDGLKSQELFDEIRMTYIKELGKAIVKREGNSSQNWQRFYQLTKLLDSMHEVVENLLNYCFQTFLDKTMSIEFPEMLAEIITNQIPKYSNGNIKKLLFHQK

| Structure (SMILES) | AHR agonist efficacy class (AHR [1]) | EC50 (AHR [2]) [µM] | efficacy class of AHR agonist based on magnitude of luciferase induction (AHR [2]; AZ-AHR cells, 4 h) | other results |
| --- | --- | --- | --- | --- |
| Cc1c[nH]c2ccccc12 [3MI, 3-methylindole] | medium efficacy | 8.4 | medium |  |
| CCCCC/C=C/C=C1/C(=O)C=C[C@@H]1C/C=C\CCCC(=O)O [15d-PGDJ, 15-Deoxy-δ12,14-Prostaglandin J2] |  |  |  | fold induction [3]: 3 fold |
| C[C@@H]1C[C@H]2[C@@H]3CCC4=CC(=O)C=C[C@]4(C)[C@@]3(F)[C@@H](O)C[C@]2(C)[C@@]1(O)C(=O)CO [DEX, dexamethasone] |  |  |  | fold induction at 0.1 µM [4]: 22 |
| C[C@]12CCC(=O)C[C@@H]1CC[C@@H]1[C@@H]2CC[C@]2(C)[C@@H](O)CC[C@@H]12 [DHT, 5α-dihydrotestosterone] |  |  |  | fold induction (androgen receptor (AR)): 20 fold |
| O=Cc1c[nH]c2ccccc12 [IA, Indole-3-aldehyde] | no or low efficacy | 18.9 ± 3.9 | low | relative efficacy, % of maximal induction to TCDD (AHR [2]; [8]): ≈ 25% |
| O=C(O)Cc1c[nH]c2ccccc12 [IAA, indole-3-acetate] | no or low efficacy |  |  |  |
| O=C(O)/C=C/c1c[nH]c2ccccc12 [IAC, indole-3-acrylate] | medium efficacy |  | high | EC50 (AHR [5]): 8.4 µM; relative efficacy, % of maximal induction to TCDD (AHR [2]; [8]): 68% |
| NC(=O)Cc1c[nH]c2ccccc12 [IAD, indole-3-acetamide] | high-efficacy | 4.5 | high | relative efficacy, % of maximal induction to TCDD (AHR [2]; [8]): 84% |
| OCCc1c[nH]c2ccccc12 [IET, indole-3-ethanol] | medium efficacy | 29.3 ± 8.2 | medium |  |
| O=C(O)C(O)Cc1c[nH]c2ccccc12 (centres unmarked) [ILA, indole-3-lactate] | no or low efficacy |  |  |  |
| c1ccc2[nH]ccc2c1 [IND, Indole] | high-efficacy | 37.6 ± 14.4 |  | toxicity at very high concentrations (AZ-AHR cells): toxic; EC50 (AHR [1]): ~1500 µM; AHR activation compared with TCDD (AHR [6]): stronger than TCDD; efficacy class of AHR agonist based on magnitude of luciferase induction (AHR [2]): high; indole concentrations under which AHR was saturated (AHR [2]): > 20 µM; EC50 (AHR [7]): ~3 µM |
| O=C(O)CCc1c[nH]c2ccccc12 [IPA, indole-3-propionate] | no or low efficacy |  |  | EC50 (AHR [5]): 48.1 ± 15.2 µM; efficacy class of AHR agonist based on magnitude of luciferase induction (AHR [2]): low; relative efficacy, % of maximal induction to TCDD (AHR [2]): ≈ 25% |
| O=C(O)C(=O)Cc1c[nH]c2ccccc12 [IPY, indole-3-pyruvate] | high-efficacy |  | high | EC50 (AHR [5]): 24.4 ± 12 µM; relative efficacy, % of maximal induction to TCDD (AHR [2]; [8]): 77% |
| NCCc1c[nH]c2ccccc12 [TA, tryptamine] | medium efficacy | 13.8 |  | efficacy class of AHR agonist based on magnitude of luciferase induction (AHR [2]): medium |
| Clc1cc2c(cc1Cl)Oc1cc(Cl)c(Cl)cc1O2 [TCDD, 2,3,7,8-tetrachlorodibenzo-p-dioxin, reference compound] |  |  |  | fold induction at 0.005 µM (AHR [2]; read-out: fold induction of luciferase activity, AZ-AHR cells, 4 h, TCDD 5 nM, over control cells): ~200 |
| C=C1CC[C@H](O)C/C1=C/C=C1\CCC[C@]2(C)[C@@H]([C@H](C)CCCC(C)C)CC[C@@H]12 [VD3, cholecalciferol] |  |  |  | fold induction at 0.075 µM (vitamin D receptor (VDR)): 65 |
